Patent publication US20200323888A1, “INHIBITORS” (VESTLANDETS INNOVASJONSSELSKAP AS, priority 2017, published 2020)
Square brackets hold non-standard residues; d marks the D form. Ends that are not written are not given here. Nle = CCCC[C@H](N)C(=O)O; CoA = coenzyme A

Columns and labels:
zebrafish embryos = assay: Phenotype after injection into zebrafish embryos; assay type: in vivo; conditions: injected into zebrafish embryos; compared with reference inhibitor
Description: A norleucine (Nle) residue was therefore tried in place of methionine in order to try to circumvent the synthesis problem.

Naa10 = molecular target: T1, Naa10 (Homo sapiens, UniProt P41227); assay: Nt-acetylation inhibitor assay (DTNB), Naa10; assay type: biochemical; conditions: selectivity, panel of human NATs
T1 sequence (P41227 1-235): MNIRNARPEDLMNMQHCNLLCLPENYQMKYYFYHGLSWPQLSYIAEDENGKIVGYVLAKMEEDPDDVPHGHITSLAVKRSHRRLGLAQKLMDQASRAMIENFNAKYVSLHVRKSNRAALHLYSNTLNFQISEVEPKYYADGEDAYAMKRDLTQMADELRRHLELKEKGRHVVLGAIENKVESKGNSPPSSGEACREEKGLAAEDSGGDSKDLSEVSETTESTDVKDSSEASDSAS
Method: The IC50 values for these compounds were tested as described in Foyn H, et al. (2013) “Design, Synthesis, and Kinetic Characterization of Protein N-Terminal Acetyltransferase Inhibitors”. ACS Chem Biol 8:1121-1127; and Foyn H, et al. (2017) “DTNB-Based quantification of in vitro enzymatic N-terminal acetyltransferase activity”, Methods Mol. Biol. 1574:9-15. Briefly, a colorimetric acetylation assay, 5,5′-dithiobis-(2-nitrobenzoic acid) (DTNB) assay was used to measure the catalytic activity of NATs after incubation with NAT inhibitors. […] Therefore, NTB- was quantified by measuring the absorbance at 412 nm and indirectly measures peptide Nt-acetylation. […] In order to measure CoA production, 2 mM DTNB (dissolved in 100 mM sodium phosphate dibasic pH 6.8 and 10 mM EDTA) was added to the quenched reaction and the absorbance at 412 nm was measured with a spectrophotometer (Epoc). Background absorbance (determined in negative controls) was subtracted from the absorbance determined in each individual reaction. Thiophenolate production was quantified assuming ε=13.7×103 M−1 cm−1. […] A similar Nt-acetylation reaction was performed as previously described and the enzymatic activity was quenched with a final concentration of 1% TFA and analyzed by HPLC (Evjenth R, Van Damme P, Gevaert K, Arnesen T (2013) HPLC-based Quantification of in vitro N-terminal Acetylation. Methods Mol Biol 981:95-102.). […]

Naa80 = molecular target: T2, Naa80 (Homo sapiens, UniProt Q93015); assay: Nt-acetylation inhibitor assay for Naa80; assay type: biochemical
T2 construct: The PCR product containing the CDS was inserted into the TOPO TA vector; made in house; host or cells: E. coli BL21 Star (DE3)
T2 sequence (Q93015 1-308 isoform Q93015-2): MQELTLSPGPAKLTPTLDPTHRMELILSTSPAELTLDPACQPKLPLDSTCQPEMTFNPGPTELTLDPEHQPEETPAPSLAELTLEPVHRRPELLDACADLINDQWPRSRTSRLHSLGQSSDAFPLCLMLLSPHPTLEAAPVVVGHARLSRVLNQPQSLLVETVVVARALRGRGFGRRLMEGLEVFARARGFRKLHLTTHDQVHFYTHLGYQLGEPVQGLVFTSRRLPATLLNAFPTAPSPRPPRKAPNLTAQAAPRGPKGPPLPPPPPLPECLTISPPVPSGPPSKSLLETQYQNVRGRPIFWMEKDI
Method: FIG. 10: (A) IC50 values for inhibitors measured in an Nt-acetylation inhibitor assay for Naa80. (B) Ki-values for CoA-Ac-DDDI-NH2 (SEQ ID NO: 6) for different human NATs measured in an Nt-acetylation inhibitor assay. All reactions were performed at least three times and in triplicate; errors bars represent standard deviation of each measurement.
The IC50 values for these compounds were tested as described in Foyn H, et al. (2013) “Design, Synthesis, and Kinetic Characterization of Protein N-Terminal Acetyltransferase Inhibitors”. ACS Chem Biol 8:1121-1127; and Foyn H, et al. (2017) “DTNB-Based quantification of in vitro enzymatic N-terminal acetyltransferase activity”, Methods Mol. Biol. 1574:9-15. Briefly, a colorimetric acetylation assay, 5,5′-dithiobis-(2-nitrobenzoic acid) (DTNB) assay was used to measure the catalytic activity of NATs after incubation with NAT inhibitors. In the DTNB assay, thiols present in the enzymatic product, CoA, cleaves DTNB and produces 2-nitro-5-thiobenzoate (NTB-), which absorbs light with a wavelength of 412 nm. NTB- forms in a 1:1 molar ratio to the thiol groups present in the sample. Therefore, NTB- was quantified by measuring the absorbance at 412 nm and indirectly measures peptide Nt-acetylation. […] After 30 min-60 min incubation at 37° C., the enzyme activity was quenched with quenching buffer (3.2 M guanidinium-HCl, 100 mM sodium phosphate dibasic pH 6.8). Triplicates were run for all positive samples, while negative controls were duplicated. As a negative control, reactions without enzyme were incubated at 37° C. before the reaction was quenched and added enzyme. In order to measure CoA production, 2 mM DTNB (dissolved in 100 mM sodium phosphate dibasic pH 6.8 and 10 mM EDTA) was added to the quenched reaction and the absorbance at 412 nm was measured with a spectrophotometer (Epoc). Background absorbance (determined in negative controls) was subtracted from the absorbance determined in each individual reaction. Thiophenolate production was quantified assuming ε=13.7×103 M−1 cm−1. For NatA and NatB enzyme complex inhibition, immunoprecipitation was performed using Naa15 ab (custom made, Arnesen T, Anderson D, Baldersheim C, Lanotte M, Varhaug J E, Lillehaug J R. (2005) Identification and characterization of the human ARD1-NATH protein acetyltransferase complex. Biochemical J 386(Pt 3):433-43.) or Naa20 ab (Nat5, abnova) respectively and protein A/G magnetic agarose beads (Millipore). A similar Nt-acetylation reaction was performed as previously described and the enzymatic activity was quenched with a final concentration of 1% TFA and analyzed by HPLC (Evjenth R, Van Damme P, Gevaert K, Arnesen T (2013) HPLC-based Quantification of in vitro N-terminal Acetylation. Methods Mol Biol 981:95-102.).
We then pursued Naa80 bisubstrate analogue inhibitors based on the results of the substrate screening and the sequences of the cellular substrates processed β- and γ-actin. We synthesized bisubstrate conjugates of Coenzyme A coupled to the tetrapeptides MDEL-NH2 (SEQ ID NO: 8), DDDI-NH2 (SEQ ID NO: 6), EEEI-NH2 (SEQ
ID NO: 7), and MLGT-NH2 (SEQ ID NO: 52) via an acetamide (Ac) linker.
The following additional Naa80 bisubstrate analogue inhibitors were produced and tested as described above: […]

NatA = molecular target: T3, NatA (Homo sapiens, UniProt P41227); assay: Nt-acetylation inhibitor assay, immunoprecipitated NatA complex, HPLC quantification; assay type: biochemical; conditions: inhibitors tested against NatA; all compounds with C-terminal amide
T3 construct: endogenous in cells
T3 sequence (P41227 1-235): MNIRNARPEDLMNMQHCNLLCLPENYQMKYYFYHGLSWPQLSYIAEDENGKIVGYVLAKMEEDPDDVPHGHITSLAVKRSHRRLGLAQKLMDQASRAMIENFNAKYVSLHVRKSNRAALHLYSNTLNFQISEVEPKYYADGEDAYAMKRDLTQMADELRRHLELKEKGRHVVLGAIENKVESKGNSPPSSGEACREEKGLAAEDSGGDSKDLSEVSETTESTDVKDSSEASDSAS
T3 sequence (Q9BXJ9 1-866 partner): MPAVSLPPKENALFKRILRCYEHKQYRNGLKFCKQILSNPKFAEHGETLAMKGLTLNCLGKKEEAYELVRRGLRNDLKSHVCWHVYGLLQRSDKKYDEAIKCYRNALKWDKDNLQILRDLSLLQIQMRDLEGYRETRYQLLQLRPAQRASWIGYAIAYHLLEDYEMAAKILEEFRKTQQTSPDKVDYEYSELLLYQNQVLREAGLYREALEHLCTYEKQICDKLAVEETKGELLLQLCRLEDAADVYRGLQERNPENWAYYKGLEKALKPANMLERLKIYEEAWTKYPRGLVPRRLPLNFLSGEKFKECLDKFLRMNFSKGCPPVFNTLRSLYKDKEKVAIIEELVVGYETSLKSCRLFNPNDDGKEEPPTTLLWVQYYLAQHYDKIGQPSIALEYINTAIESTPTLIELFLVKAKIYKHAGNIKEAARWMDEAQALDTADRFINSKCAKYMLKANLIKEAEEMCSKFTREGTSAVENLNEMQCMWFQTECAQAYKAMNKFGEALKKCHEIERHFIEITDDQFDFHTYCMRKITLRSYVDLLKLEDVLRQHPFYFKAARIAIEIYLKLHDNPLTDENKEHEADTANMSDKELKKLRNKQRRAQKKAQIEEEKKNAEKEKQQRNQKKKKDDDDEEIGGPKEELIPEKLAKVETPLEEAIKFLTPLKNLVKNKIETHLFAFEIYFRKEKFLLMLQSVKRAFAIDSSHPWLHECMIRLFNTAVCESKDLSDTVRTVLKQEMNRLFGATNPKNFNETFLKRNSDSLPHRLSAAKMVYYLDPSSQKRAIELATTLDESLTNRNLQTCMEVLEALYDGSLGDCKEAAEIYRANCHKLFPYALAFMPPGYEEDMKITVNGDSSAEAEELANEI
Method: The IC50 values for these compounds were tested as described in Foyn H, et al. (2013) “Design, Synthesis, and Kinetic Characterization of Protein N-Terminal Acetyltransferase Inhibitors”. ACS Chem Biol 8:1121-1127; and Foyn H, et al. (2017) “DTNB-Based quantification of in vitro enzymatic N-terminal acetyltransferase activity”, Methods Mol. Biol. 1574:9-15. Briefly, a colorimetric acetylation assay, 5,5′-dithiobis-(2-nitrobenzoic acid) (DTNB) assay was used to measure the catalytic activity of NATs after incubation with NAT inhibitors. In the DTNB assay, thiols present in the enzymatic product, CoA, cleaves DTNB and produces 2-nitro-5-thiobenzoate (NTB-), which absorbs light with a wavelength of 412 nm. NTB- forms in a 1:1 molar ratio to the thiol groups present in the sample. Therefore, NTB- was quantified by measuring the absorbance at 412 nm and indirectly measures peptide Nt-acetylation. Recombinant purified NAT enzyme was mixed with different substrate peptides (300 uM, custom-made) and Ac-CoA (300 uM) in acetylation buffer (50 mM Tris/HEPES pH 8.5-7.4, 100 mM NaCl, 10% glycerol and 0.2 mM EDTA) and with inhibitor concentration (0-500 uM). After 30 min-60 min incubation at 37° C., the enzyme activity was quenched with quenching buffer (3.2 M guanidinium-HCl, 100 mM sodium phosphate dibasic pH 6.8). Triplicates were run for all positive samples, while negative controls were duplicated. As a negative control, reactions without enzyme were incubated at 37° C. before the reaction was quenched and added enzyme. In order to measure CoA production, 2 mM DTNB (dissolved in 100 mM sodium phosphate dibasic pH 6.8 and 10 mM EDTA) was added to the quenched reaction and the absorbance at 412 nm was measured with a spectrophotometer (Epoc). Background absorbance (determined in negative controls) was subtracted from the absorbance determined in each individual reaction. Thiophenolate production was quantified assuming ε=13.7×103 M−1 cm−1. […] A similar Nt-acetylation reaction was performed as previously described and the enzymatic activity was quenched with a final concentration of 1% TFA and analyzed by HPLC (Evjenth R, Van Damme P, Gevaert K, Arnesen T (2013) HPLC-based Quantification of in vitro N-terminal Acetylation. Methods Mol Biol 981:95-102.).
In order to ensure selectivity towards NatA, the CoA-Ac-SSNIeP (SEQ ID NO: 4) was tested against other NATs. Using the Cheng-Prusoff equation for competitive inhibitors, the dissociation constant, Ki, was calculated from IC50 values and [S]/Km ratios for all the NATs.

DDDI24 = molecular target: T4, DDDI24
T4 chain: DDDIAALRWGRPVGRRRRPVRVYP

MDDD24 = molecular target: T5, MDDD24
T5 chain: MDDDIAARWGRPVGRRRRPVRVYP

MDEL24 = molecular target: T6, MDEL24
T6 chain: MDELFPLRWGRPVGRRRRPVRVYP

For “CoA-Ac-SSNlePK-folic acid: CoA-Ac-SS(Nle)PK (SEQ ID NO: 23) carrying folic acid as targeting moiety ({CoA-Ac}-SS[Nle]PK; not fully specified (C-terminus); also: folic acid conjugate as targeting moiety, site not given here)”, the phenotype in zebrafish (zebrafish embryos) was “comparable phenotypes as CoA-Ac-SSNleP-NH2”.

In the case of `CC[C@H](C)[C@H](NC(=O)[C@H](CC(=O)O)NC(=O)[C@H](CC(=O)O)NC(=O)[C@H](CC(=O)O)NC(=O)CSCCNC(=O)CCNC(=O)C(O)C(C)(C)COP(=O)(O)OP(=O)(O)OCC1OC(n2cnc3c(N)ncnc32)C(O)C1OP(=O)(O)O)C(N)=O` (stereo partly drawn) [CoA-Ac-DDDI-NH2], the “reduced potency for Naa10 compared to Naa80” value (Naa10) is reported as 88 fold, the IC50 (Naa80; Naa80) is reported as 0.38 µM and the “more potent Naa80 inhibitor than CoA-Ac-EEEI-NH2” value (Naa80; ratio of IC50 values) is reported as 3 fold. The “more potent Naa80 inhibitor than CoA-Ac-MDEL-NH2” value (Naa80; ratio of IC50 values) was 3.3 fold.

In the case of `CCCC[C@H](NC(=O)[C@H](CO)NC(=O)[C@@H]1CCCN1C(=O)CSCCNC(=O)CCNC(=O)C(O)C(C)(C)COP(=O)(O)OP(=O)(O)OCC1OC(n2cnc3c(N)ncnc32)C(O)C1OP(=O)(O)O)C(=O)N1CCC[C@H]1C(N)=O` (stereo partly drawn) [CoA-Ac-PS(Nle)P], the IC50 (NatA) is reported as greater than 1000 µM.

B1: MBP-HishNAA80 fusion protein (MBP-Naa80) (protein)
chain: MQELTLSPGPAKLTPTLDPTHRMELILSTSPAELTLDPACQPKLPLDSTCQPEMTFNPGPTELTLDPEHQPEETPAPSLAELTLEPVHRRPELLDACADLINDQWPRSRTSRLHSLGQSSDAFPLCLMLLSPHPTLEAAPVVVGHARLSRVLNQPQSLLVETVVVARALRGRGFGRRLMEGLEVFARARGFRKLHLTTHDQVHFYTHLGYQLGEPVQGLVFTSRRLPATLLNAFPTAPSPRPPRKAPNLTAQAAPRGPKGPPLPPPPPLPECLTISPPVPSGPPSKSLLETQYQNVRGRPIFWMEKDI
B1 was tested, and the “substrate ranking by product formation” value (DDDI24) was “its cellular substrate, processed β-actin, DDDI24 (SEQ ID NO: 41) ranked third”, the “substrate ranking by product formation” value (MDDD24) was “the second best substrate, MDDD24” and the “product formation, fold higher compared to the second best substrate MDDD24” value (MDEL24) was “a 5-fold higher product formation compared to the second best substrate, MDDD24”.
